{"source": "paper PMC6104039", "about": "(Nature Communications, 2018)", "system": "HEK293 cells", "assay": "Endogenous ceramide, HexCer and SM levels in cells treated 24 h, targeted LC-MS/MS", "type": "cell-based", "settings": "24 h", "method": "Lipids were then extracted using MTBE/methanol/water as described above.\nHEK293 cell culture experiment: Levels of each lipid in P053-treated HEK293 cells were normalised to the mean of the vehicle control group, and each concentration was compared to the control using ANOVA with Dunnett’s post-test. P values were adjusted for multiple comparisons in GraphPad PRISM.\nSupplementary Figure 1. Ceramide, SM, and HexCer levels in HEK293 cells treated with\nP053. Absolute lipid levels were determined by targeted LC-MS/MS, relative to external\nstandard curves. Results are mean ± SEM (n = 4) from one of two identical experiments.\nStatistically significant results, based on two independent experiments, are as indicated in\nFigure 2b-d. Raw data for these figures is provided in Supplementary Data File 1.", "note": "Where “and” joins values, the source holds several entries; their conditions need not be identical. Equal entries are not always repeated."}
{"molecule": "C[C@@](N)(CO)CCc1ccc(OCc2ccc(Cl)c(Cl)c2)cc1", "note": "[P053, (S)-2-amino-4-(4-(3,4-dichlorobenzyloxy)phenyl)-2-methylbutan-1-ol]", "values": [{"measurement": "reduction of C18:0 ceramide", "setting": "100 nM", "result": 53, "unit": "%"}, {"measurement": "C18 HexCer", "result": "selectively reduced"}, {"measurement": "C18 SM", "result": "selectively reduced"}, {"measurement": "C24:0 ceramide", "result": "minor increase"}, {"measurement": "other forms of ceramide", "result": "No other forms of ceramide were reduced"}, {"measurement": "14:0 SM level", "setting": "HEK293 cells, P053 10 nM", "result": "86.4023 percentage of the vehicle control group and 87.5076 percentage of the vehicle control group and 111.4 percentage of the vehicle control group and 123.229 percentage of the vehicle control group and 107.24 percentage of the vehicle control group and 105.555 percentage of the vehicle control group and 105.116 percentage of the vehicle control group and 89.1667 percentage of the vehicle control group"}, {"measurement": "16:0 Cer level", "setting": "HEK293 cells, P053 10 nM", "result": "108.507 percentage of the vehicle control group and 85.9381 percentage of the vehicle control group and 87.0921 percentage of the vehicle control group and 116.695 percentage of the vehicle control group and 104.33 percentage of the vehicle control group and 104.933 percentage of the vehicle control group and 106.707 percentage of the vehicle control group and 101.056 percentage of the vehicle control group"}, {"measurement": "16:0 HexCer level", "setting": "HEK293 cells, P053 10 nM", "result": "83.0725 percentage of the vehicle control group and 87.9406 percentage of the vehicle control group and 128.577 percentage of the vehicle control group and 99.1213 percentage of the vehicle control group and 108.606 percentage of the vehicle control group and 107.974 percentage of the vehicle control group and 99.8354 percentage of the vehicle control group and 80.4305 percentage of the vehicle control group"}, {"measurement": "16:0 SM level", "setting": "HEK293 cells, P053 10 nM", "result": "90.9817 percentage of the vehicle control group and 95.8078 percentage of the vehicle control group and 105.689 percentage of the vehicle control group and 116.265 percentage of the vehicle control group and 95.5779 percentage of the vehicle control group and 88.0621 percentage of the vehicle control group and 88.5464 percentage of the vehicle control group and 91.6422 percentage of the vehicle control group"}, {"measurement": "16:1 SM level", "setting": "HEK293 cells, P053 10 nM", "result": "86.5462 percentage of the vehicle control group and 91.7143 percentage of the vehicle control group and 104.066 percentage of the vehicle control group and 119.449 percentage of the vehicle control group and 101.997 percentage of the vehicle control group and 91.4576 percentage of the vehicle control group and 97.8179 percentage of the vehicle control group and 89.4979 percentage of the vehicle control group"}, {"measurement": "18:0 Cer level", "setting": "HEK293 cells, P053 10 nM", "result": "75.1597 percentage of the vehicle control group and 77.1381 percentage of the vehicle control group and 83.1016 percentage of the vehicle control group and 101.889 percentage of the vehicle control group and 100.455 percentage of the vehicle control group and 110.825 percentage of the vehicle control group and 90.177 percentage of the vehicle control group and 106.32 percentage of the vehicle control group"}, {"measurement": "18:0 SM level", "setting": "HEK293 cells, P053 10 nM", "result": "87.3577 percentage of the vehicle control group and 90.1399 percentage of the vehicle control group and 117.324 percentage of the vehicle control group and 82.3337 percentage of the vehicle control group and 88.9916 percentage of the vehicle control group and 83.1732 percentage of the vehicle control group and 88.0529 percentage of the vehicle control group"}, {"measurement": "18:1 SM level", "setting": "HEK293 cells, P053 10 nM", "result": "90.5796 percentage of the vehicle control group and 93.2037 percentage of the vehicle control group and 88.8318 percentage of the vehicle control group and 108.011 percentage of the vehicle control group and 95.5914 percentage of the vehicle control group and 79.238 percentage of the vehicle control group and 78.9032 percentage of the vehicle control group and 84.4686 percentage of the vehicle control group"}, {"measurement": "22:0 Cer level", "setting": "HEK293 cells, P053 10 nM", "result": "104.639 percentage of the vehicle control group and 100.078 percentage of the vehicle control group and 73.3754 percentage of the vehicle control group and 101.613 percentage of the vehicle control group and 114.746 percentage of the vehicle control group and 118.068 percentage of the vehicle control group and 114.641 percentage of the vehicle control group and 113.437 percentage of the vehicle control group"}, {"measurement": "22:0 HexCer level", "setting": "HEK293 cells, P053 10 nM", "result": "98.6933 percentage of the vehicle control group and 87.3308 percentage of the vehicle control group and 106.948 percentage of the vehicle control group and 113.522 percentage of the vehicle control group and 107.776 percentage of the vehicle control group and 119.187 percentage of the vehicle control group and 120.197 percentage of the vehicle control group and 88.6877 percentage of the vehicle control group"}, {"measurement": "22:0 SM level", "setting": "HEK293 cells, P053 10 nM", "result": "77.9336 percentage of the vehicle control group and 82.0524 percentage of the vehicle control group and 72.1049 percentage of the vehicle control group and 117.359 percentage of the vehicle control group and 120.117 percentage of the vehicle control group and 100.918 percentage of the vehicle control group and 103.279 percentage of the vehicle control group and 105.704 percentage of the vehicle control group"}, {"measurement": "22:1 SM level", "setting": "HEK293 cells, P053 10 nM", "result": "103.42 percentage of the vehicle control group and 102.614 percentage of the vehicle control group and 99.3902 percentage of the vehicle control group and 105.25 percentage of the vehicle control group and 111.738 percentage of the vehicle control group and 105.36 percentage of the vehicle control group and 88.0812 percentage of the vehicle control group and 91.3619 percentage of the vehicle control group"}, {"measurement": "24:0 HexCer level", "setting": "HEK293 cells, P053 10 nM", "result": "87.0807 percentage of the vehicle control group and 93.0525 percentage of the vehicle control group and 81.1451 percentage of the vehicle control group and 103.31 percentage of the vehicle control group and 112.306 percentage of the vehicle control group and 129.078 percentage of the vehicle control group and 103.585 percentage of the vehicle control group and 92.4822 percentage of the vehicle control group"}, {"measurement": "24:0 SM level", "setting": "HEK293 cells, P053 10 nM", "result": "97.1928 percentage of the vehicle control group and 98.2718 percentage of the vehicle control group and 75.7857 percentage of the vehicle control group and 112.798 percentage of the vehicle control group and 112.334 percentage of the vehicle control group and 114.303 percentage of the vehicle control group and 127.22 percentage of the vehicle control group and 98.002 percentage of the vehicle control group"}, {"measurement": "24:1 Cer level", "setting": "HEK293 cells, P053 10 nM", "result": "105.077 percentage of the vehicle control group and 87.804 percentage of the vehicle control group and 67.6975 percentage of the vehicle control group and 121.49 percentage of the vehicle control group and 108.722 percentage of the vehicle control group and 121.479 percentage of the vehicle control group and 112.469 percentage of the vehicle control group and 111.695 percentage of the vehicle control group"}, {"measurement": "24:1 HexCer level", "setting": "HEK293 cells, P053 10 nM", "result": "100.2 percentage of the vehicle control group and 101.908 percentage of the vehicle control group and 107.061 percentage of the vehicle control group and 109.845 percentage of the vehicle control group and 113.174 percentage of the vehicle control group and 115.061 percentage of the vehicle control group and 107.49 percentage of the vehicle control group and 96.3768 percentage of the vehicle control group"}]}
